Where two headings read alike, the source gives them in different places.
What was measured:
[1] = biodistribution: tissue fluorescence in harvested organs; assay type: in vivo, C57BL/6 mice; settings: organs harvested 4h post-injection, 1 nmol injected
[2] = LC/MS analysis of mouse urine; assay type: in vivo, C57BL/6 mice; settings: mouse urine 4h after injection
human MMP-12 [3] = target: T1, human MMP-12 (Homo sapiens, UniProt P39900); experiment: ability to block MMP-12 activity in presence of human serum albumin; assay type: biochemical; settings: hSA 5 μM
[4] = blood clearance after intravenous injection in mice; assay type: in vivo; settings: C57BL/6 mice, 1 nmol injected, n=3, 4h post-injection
human MMP-12 [5] = target: T1, human MMP-12; experiment: in vitro binding; assay type: biochemical; settings: read-out: Ki (nM)/hMMP12; 50 mM Tris/HCl buffer, pH 6.8, 10 mM CaCl2, 25 °C; mean ± SD of three experiments
atherosclerotic plaque = settings: mouse model of atherosclerosis; cited from earlier work
human MMP-12 [6] = target: T1, human MMP-12; settings: read-out: Ki toward human MMP-12; cited from earlier work

T1 sequence (P39900 106-470): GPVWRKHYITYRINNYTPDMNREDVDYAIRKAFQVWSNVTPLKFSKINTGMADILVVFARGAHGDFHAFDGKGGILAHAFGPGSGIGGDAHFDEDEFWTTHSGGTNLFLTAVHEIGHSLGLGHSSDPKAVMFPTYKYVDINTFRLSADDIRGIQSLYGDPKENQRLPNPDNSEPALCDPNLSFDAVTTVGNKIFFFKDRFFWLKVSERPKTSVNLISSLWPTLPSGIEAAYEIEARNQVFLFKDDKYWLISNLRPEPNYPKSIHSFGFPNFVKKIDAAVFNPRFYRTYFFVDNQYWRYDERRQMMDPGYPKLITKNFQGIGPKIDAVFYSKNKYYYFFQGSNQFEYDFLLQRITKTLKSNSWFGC

| Structure (SMILES) | tissue fluorescence in liver, spleen, kidneys and lungs [1] | conversion into a second metabolite in urine [2] | shift of Ki in presence of human serum albumin (human MMP-12 [3]) | percentage of injected dose remaining in the bloodstream 4h post-injection [4] | Ki (human MMP-12 [5]) | effect on atherosclerotic plaque (atherosclerotic plaque) | Ki (human MMP-12 [6]) |
| --- | --- | --- | --- | --- | --- | --- | --- |
| CC1(C)C(=CC=C2CCCC(C=CC3=[N+](CCCCCC(=O)NCCOCCOCCNC(=O)[C@H](CCC(=O)O)NC(=O)[C@H](CCC(=O)O)NC(=O)[C@H](Cc4cc(-c5ccc(-c6cccc(Cl)c6)cc5)no4)CP(=O)(O)c4ccc(Br)cc4)c4ccc(S(=O)(=O)O)cc4C3(C)C)=C2Oc2ccc(S(=O)(=O)O)cc2)N(CCCCS(=O)(=O)O)c2ccc(S(=O)(=O)[O-])cc21 [probe 4] | cleared by the kidneys, but its uptake by the liver is not negligible | about 50% | – | – | – | – | – |
| CC[N+]1=C(C=CC=CC=C2N(CCCCCC(=O)NCCOCCOCCNC(=O)[C@H](CCC(=O)O)NC(=O)[C@H](CCC(=O)O)NC(=O)[C@H](Cc3cc(-c4ccc(-c5cccc(Cl)c5)cc4)no3)CP(=O)(O)c3ccc(Br)cc3)c3ccc4c(S(=O)(=O)O)cc(S(=O)(=O)[O-])cc4c3C2(C)C)C(C)(C)c2c1ccc1c(S(=O)(=O)O)cc(S(=O)(=O)O)cc21 [probe 1] | higher fluorescence signals in the kidneys relative to the liver | – | 88 fold | 25.1±2.9 %ID | – | – | – |
| NC(=O)[C@H](CCC(=O)O)NC(=O)[C@H](CCC(=O)O)NC(=O)[C@H](Cc1cc(-c2ccc(-c3cccc(Cl)c3)cc2)no1)CP(=O)(O)c1ccc(Br)cc1 [RXP470.1, reference compound] | – | – | 8.5 fold | – | 0.26 ± 0.05 nM | inhibit atherosclerotic plaque growth | 0.26 nM |

— publication PMC5100701 (Bioconjugate chemistry, 2016)
